In ChEMBL document CHEMBL5537140, “Discovery and exploration of novel somatostatin receptor subtype 5 (SSTR5) antagonists for the treatment of cholesterol gallstones” (Eur J Med Chem, 2024):
Calls of active or inactive are those of the source. The rule behind the calls is not given here.

Columns and labels:
CHO = assay: Cytotoxicity against CHO cells upto 10 uM; details: chinese hamster
[1] = target: T1, Somatostatin receptor type 5 (Mus musculus, UniProt O08858); assay: Antagonist activity at N-terminal HA-tagged mouse SSTR5 expressed in CHO cells assessed as change in intracellular […] level preincubated with agonist for 10 mins followed by compound addition by CRE-driven luciferase reporter based microplate reader; format: functional, cell-based
T1 sequence (O08858 whole entry): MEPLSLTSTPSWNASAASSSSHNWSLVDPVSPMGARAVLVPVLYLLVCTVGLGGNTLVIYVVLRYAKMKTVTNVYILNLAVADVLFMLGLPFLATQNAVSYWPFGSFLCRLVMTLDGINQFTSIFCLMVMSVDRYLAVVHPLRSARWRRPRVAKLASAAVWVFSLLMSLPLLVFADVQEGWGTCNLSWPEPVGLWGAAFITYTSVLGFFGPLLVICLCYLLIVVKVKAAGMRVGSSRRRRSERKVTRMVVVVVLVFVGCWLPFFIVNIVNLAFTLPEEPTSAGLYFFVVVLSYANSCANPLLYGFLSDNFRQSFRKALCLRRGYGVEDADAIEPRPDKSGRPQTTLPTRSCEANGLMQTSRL

[2] = Metabolic stability in mouse liver microsomes assessed as parent compound remaining at 1 uM incubated for 30 mins in presence of NADPH by LC-MS/MS analysis; format: ADME, Microsome; details: read-out: Stability
[3] = target: Somatostatin receptor type 5 (Homo sapiens, UniProt P35346); assay: Antagonist activity at N-terminal HA-tagged human SSTR5 expressed in CHO cells assessed as change in intracellular […] level preincubated with agonist for 10 mins followed by compound addition by CRE-driven luciferase reporter based microplate reader; format: functional, cell-based
[4] = target: Voltage-gated inwardly rectifying potassium channel KCNH2 (Homo sapiens, UniProt Q12809); assay: Inhibition of hERG expressed in CHO cells by Qpatch automatic patch clamp method
Mus musculus [5] = assay: Protection against lithogenic diet induced cholesterol gallstone C57BL/6J mouse model assessed as reduction in large gallstone precipitate at 60 mg/kg, po administered once daily for 14 days; format: functional, organism-based; details: time 14.0 day
[6] = Observed AUC (0 to infinity) in C57BL/6J mouse at 1 mg/kg, iv measured at 0.05 to 24 hrs by LC-MS/MS analysis; format: ADME, organism-based; details: in vivo, time 0.05-24 hrs
Mus musculus [7] = assay: Protection against lithogenic diet induced cholesterol gallstone C57BL/6J mouse model assessed as reduction in large gallstone precipitate at 1 to 3 mg/kg, po administered once daily for 14 days; format: functional, organism-based; details: dose 1-3 mg/kg, time 14.0 day
[8] = Cytotoxicity against CHO cells assessed as cellular ATP at 10 uM relative to control; format: toxicity, cell-based, Cricetulus griseus; details: chinese hamster, read-out: Activity
[9] = Half-life in C57BL/6J mouse at 1 mg/kg, iv measured at 0.05 to 24 hrs by LC-MS/MS analysis; format: ADME, organism-based; details: in vivo, time 0.05-24 hrs
Mus musculus [10] = assay: Induction of gallbladder emptying in C57BL/6J mouse assessed as reduction in gallbladder weight at 10 mg/kg, po preadministered with compound for 30 mins followed by egg yolk administration and measured after 15 mins; format: functional, organism-based; details: time 45.0 min
[11] = Half-life in C57BL/6J mouse at 3 mg/kg, po measured at 0.25 to 24 hrs by LC-MS/MS analysis; format: ADME, organism-based; details: in vivo, time 0.25-24 hrs
[12] = Observed volume of distribution at steady state in C57BL/6J mouse at 1 mg/kg, iv measured at 0.05 to 24 hrs by LC-MS/MS analysis; format: ADME, organism-based; details: in vivo, time 0.05-24 hrs, read-out: Vdss
[13] = Observed AUC (0 to infinity) in C57BL/6J mouse at 3 mg/kg, po measured at 0.25 to 24 hrs by LC-MS/MS analysis; format: ADME, organism-based; details: in vivo, time 0.25-24 hrs
Mus musculus [14] = assay: Protection against lithogenic diet induced cholesterol gallstone C57BL/6J mouse model assessed as reduction in dense-cored gallstone precipitate at 1 to 3 mg/kg, po administered once daily for 14 days; format: functional, organism-based; details: dose 1-3 mg/kg, time 14.0 day
[15] = Metabolic stability in human liver microsomes assessed as parent compound remaining at 1 uM incubated for 30 mins in presence of NADPH by LC-MS/MS analysis; format: ADME, Microsome; details: read-out: Stability
[16] = Tmax in C57BL/6J mouse at 3 mg/kg, po measured at 0.25 to 24 hrs by LC-MS/MS analysis; format: ADME, organism-based; details: in vivo, time 0.25-24 hrs
Mus musculus [17] = assay: Protection against lithogenic diet induced cholesterol gallstone C57BL/6J mouse model assessed as reduction in dense-cored gallstone precipitate at 60 mg/kg, po administered once daily for 14 days; format: functional, organism-based; details: time 14.0 day
Mus musculus [18] = assay: Protection against lithogenic diet induced cholesterol gallstone C57BL/6J mouse model assessed as reduction in cholesterol gallstone formation at 1 to 3 mg/kg, po administered once daily for 14 days; format: functional, organism-based; details: dose 1-3 mg/kg, time 14.0 day
[19] = Oral bioavailability in C57BL/6J mouse at 3 mg/kg measured at 0.25 to 24 hrs by LC-MS/MS analysis; format: ADME, organism-based; details: in vivo, time 0.25-24 hrs
[20] = Observed clearance in C57BL/6J mouse at 1 mg/kg, iv measured at 0.05 to 24 hrs by LC-MS/MS analysis; format: ADME, organism-based; details: in vivo, time 0.05-24 hrs
[21] = Cmax in C57BL/6J mouse at 3 mg/kg, po measured at 0.25 to 24 hrs by LC-MS/MS analysis; format: ADME, organism-based; details: in vivo, time 0.25-24 hrs
Mus musculus [22] = assay: Protection against lithogenic diet induced cholesterol gallstone C57BL/6J mouse model assessed as reduction in cholesterol gallstone formation at 60 mg/kg, po administered once daily for 14 days; format: functional, organism-based; details: time 14.0 day

Somatostatin receptor type 5 (Homo sapiens, UniProt P35346), sequence (P35346 whole entry): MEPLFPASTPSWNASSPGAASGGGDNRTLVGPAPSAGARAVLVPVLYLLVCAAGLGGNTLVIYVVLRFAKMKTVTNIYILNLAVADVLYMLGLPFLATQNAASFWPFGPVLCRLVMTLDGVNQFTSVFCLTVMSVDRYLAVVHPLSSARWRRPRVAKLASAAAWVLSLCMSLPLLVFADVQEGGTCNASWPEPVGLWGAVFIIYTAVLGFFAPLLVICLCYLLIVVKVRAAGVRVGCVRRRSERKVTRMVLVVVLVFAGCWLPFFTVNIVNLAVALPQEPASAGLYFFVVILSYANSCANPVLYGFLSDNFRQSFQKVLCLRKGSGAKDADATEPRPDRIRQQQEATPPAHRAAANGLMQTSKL
Voltage-gated inwardly rectifying potassium channel KCNH2, sequence (Q12809 whole entry): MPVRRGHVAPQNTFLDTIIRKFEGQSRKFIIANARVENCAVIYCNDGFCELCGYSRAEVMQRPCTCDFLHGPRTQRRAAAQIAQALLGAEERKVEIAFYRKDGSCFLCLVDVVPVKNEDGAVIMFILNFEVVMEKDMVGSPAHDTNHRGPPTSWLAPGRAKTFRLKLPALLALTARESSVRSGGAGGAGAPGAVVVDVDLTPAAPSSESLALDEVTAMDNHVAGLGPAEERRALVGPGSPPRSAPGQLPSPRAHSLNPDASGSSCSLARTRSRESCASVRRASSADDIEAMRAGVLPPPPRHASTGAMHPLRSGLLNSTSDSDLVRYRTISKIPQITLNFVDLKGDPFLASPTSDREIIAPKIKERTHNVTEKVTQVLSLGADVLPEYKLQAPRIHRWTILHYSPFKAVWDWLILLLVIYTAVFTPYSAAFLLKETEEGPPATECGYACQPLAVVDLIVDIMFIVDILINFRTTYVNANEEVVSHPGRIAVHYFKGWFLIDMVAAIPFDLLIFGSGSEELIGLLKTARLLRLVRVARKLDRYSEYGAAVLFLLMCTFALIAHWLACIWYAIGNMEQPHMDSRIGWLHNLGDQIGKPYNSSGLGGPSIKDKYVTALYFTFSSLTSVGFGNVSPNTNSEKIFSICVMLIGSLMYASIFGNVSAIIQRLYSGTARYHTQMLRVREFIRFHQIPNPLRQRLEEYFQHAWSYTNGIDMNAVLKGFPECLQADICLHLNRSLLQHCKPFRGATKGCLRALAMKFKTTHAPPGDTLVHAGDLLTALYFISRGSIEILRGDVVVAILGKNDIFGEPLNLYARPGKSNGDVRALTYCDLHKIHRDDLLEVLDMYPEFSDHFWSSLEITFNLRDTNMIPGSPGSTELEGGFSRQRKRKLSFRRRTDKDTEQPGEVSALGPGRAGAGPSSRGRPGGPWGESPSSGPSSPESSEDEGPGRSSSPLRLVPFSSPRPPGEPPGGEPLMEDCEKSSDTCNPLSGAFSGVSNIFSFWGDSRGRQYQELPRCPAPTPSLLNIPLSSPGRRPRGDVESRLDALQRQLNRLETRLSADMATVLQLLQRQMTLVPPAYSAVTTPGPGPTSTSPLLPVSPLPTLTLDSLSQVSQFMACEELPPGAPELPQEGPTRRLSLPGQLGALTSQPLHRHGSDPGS

| Compound | Activity (CHO) | IC50 [1] [nM] | other results |
| --- | --- | --- | --- |
| CCOc1cc(CN2CCC(F)(CNc3ccc(N)cc3)CC2)cc(OCC)c1-c1ccc(F)cc1 | Non-Toxic | 1770 | – |
| CCOc1cc(CN2CCC(F)(CNc3ccc(C(=O)O)cc3OC)CC2)cc(OCC)c1-c1ccc(F)cc1 | Non-Toxic | 20.5 | – |
| CCOc1cc(CN2CC(COc3ccc(C(=O)O)cc3)C2)cc(OCC)c1-c1ccc(F)cc1 | Non-Toxic | 394 | – |
| CCOc1cc(CN2CCC(F)(COc3ccc(C(=O)O)cc3)CC2)cc(OCC)c1-c1ccc(F)cc1 | Non-Toxic | 14.8 | remaining at 0.5 h, 1 µM [2]: 61% |
| CCOc1cc(CN2CCC(F)(CNc3ccc(C(=O)O)cc3C)CC2)cc(OCC)c1-c1ccc(F)cc1 | Non-Toxic | 25.4 | – |
| CCOc1cc(CN2CCC(F)(CNc3ccc(C(=O)O)cc3)CC2)cc(OCC)c1-c1ccc(F)cc1 | Non-Toxic | 13.9 | remaining at 0.5 h, 1 µM [2]: 81.4%; IC50 [3]: 27.6 nM; IC50 [4]: > 20000 nM |
| CCOc1cc(CN2CCC(O)(Cc3ccc(C(=O)O)cc3)CC2)cc(OCC)c1-c1ccc(F)cc1 | Non-Toxic | 176 | – |
| CCOc1cc(CN2CCC(F)(CNc3ccc(C(=O)O)c(OC)c3)CC2)cc(OCC)c1-c1ccc(F)cc1 | Non-Toxic | 1.4 | Activity (Mus musculus [5]): Active; AUC(0-inf) [6]: 562 ng·h/mL; Activity (Mus musculus [7]): Active; viability at 10 µM [8]: 92%; half-life [9]: 2.45 h; Activity (Mus musculus [10]): Active; half-life [11]: 3.58 h; Vd [12]: 2.6 L/kg; AUC(0-inf) [13]: 494 ng·h/mL; Activity (Mus musculus [14]): Active; remaining at 0.5 h, 1 µM [15]: 92.5%; Tmax [16]: 0.33 h; remaining at 0.5 h, 1 µM [2]: 59.8%; Activity (Mus musculus [17]): Active; Activity (Mus musculus [18]): Active; bioavailability [19]: 29.3%; IC50 [3]: 2.8 nM; IC50 [4]: > 20000 nM; clearance [20]: 30.5 mL/min/kg; Cmax [21]: 208 ng/mL |
| CCOc1cc(CN2CCC(O)(c3ccc(Cl)cc3)CC2)cc(OCC)c1-c1ccc(F)cc1 | Non-Toxic | 11100 | – |
| CCOc1cc(CN2CCC(Oc3ccc(C(=O)O)cc3)CC2)cc(OCC)c1-c1ccc(F)cc1 | Non-Toxic | 44.3 | – |
| C[C@H](CCC(=O)O)[C@H]1CC[C@H]2[C@@H]3[C@@H](O)C[C@@H]4C[C@H](O)CC[C@]4(C)[C@H]3CC[C@]12C | – | – | Activity (Mus musculus [22]): Active |
| CCOc1cc(CN2CCC(F)(CNc3ccc(O)cc3)CC2)cc(OCC)c1-c1ccc(F)cc1 | Non-Toxic | 1300 | – |
| CCOc1cc(CN2CC(Nc3ccc(C(=O)O)cc3)C2)cc(OCC)c1-c1ccc(F)cc1 | Non-Toxic | 183 | IC50 [3]: 1010 nM |
| CCOc1cc(CN2CCC(C)(CNc3ccc(C(=O)O)cc3)CC2)cc(OCC)c1-c1ccc(F)cc1 | Non-Toxic | 128 | – |
| CCOc1cc(CN2CCC(C)(C(=O)Nc3ccc(C(=O)O)cc3)CC2)cc(OCC)c1-c1ccc(F)cc1 | Non-Toxic | 12200 | – |
| CCOc1cc(CN2CCC(F)(CNc3ccc(C(=O)O)c(Cl)c3)CC2)cc(OCC)c1-c1ccc(F)cc1 | Non-Toxic | 42.2 | – |
| CCOc1cc(CN2CCC(COc3ccc(C(=O)O)cc3)CC2)cc(OCC)c1-c1ccc(F)cc1 | – | 11.5 | – |
| CCOc1cc(CN2CCC(O)(CNc3ccc(C(=O)O)cc3)CC2)cc(OCC)c1-c1ccc(F)cc1 | Non-Toxic | 52 | – |
| CN(C)C(=O)C(CCN1CCC(O)(c2ccc(Cl)cc2)CC1)(c1ccccc1)c1ccccc1 [LOPERAMIDE] | Non-Toxic | 63600 | IC50 [3]: 33100 nM |
| CCOc1cc(CN2CCC(F)(CNc3ccc(C(=O)O)cc3Cl)CC2)cc(OCC)c1-c1ccc(F)cc1 | Non-Toxic | 132 | – |
| CCOc1cc(CN2CCC(C(=O)Nc3ccc(C(=O)O)cc3)CC2)cc(OCC)c1-c1ccc(F)cc1 | Non-Toxic | 853 | – |
| CCOc1cc(CN2CCC(F)(C(=O)Nc3ccc(C(=O)O)cc3)CC2)cc(OCC)c1-c1ccc(F)cc1 | Non-Toxic | 2560 | – |
| CCOc1cc(CN2CCC(CNc3ccc(C(=O)O)cc3)CC2)cc(OCC)c1-c1ccc(F)cc1 | Non-Toxic | 91.7 | – |
| CCOc1cc(CN2CCC(O)(C(=O)Nc3ccc(C(=O)O)cc3)CC2)cc(OCC)c1-c1ccc(F)cc1 | Non-Toxic | 14700 | IC50 [3]: 22900 nM |
| CCOc1cc(CN2CCC(F)(CNc3ccc(C(=O)O)c(C)c3)CC2)cc(OCC)c1-c1ccc(F)cc1 | Non-Toxic | 97.5 | – |
| CCOc1cc(CN2CCC(C)(COc3ccc(C(=O)O)cc3)CC2)cc(OCC)c1-c1ccc(F)cc1 | Non-Toxic | 1860 | IC50 [3]: 3410 nM |
| CCOc1cc(CN2CC(CNc3ccc(C(=O)O)cc3)C2)cc(OCC)c1-c1ccc(F)cc1 | Non-Toxic | 157 | – |
| CCOc1cc(CN2CCC(O)(COc3ccc(C(=O)O)cc3)CC2)cc(OCC)c1-c1ccc(F)cc1 | Non-Toxic | 51.1 | – |
